# Assay results from US9957265B2, “N-(2-cyano heterocyclyl) pyrazolo pyridones as janus kinase inhibitors” (Merck Sharp & Dohme Corp., priority 2013, dated 2018).
# Like-named read-outs stand apart in the source and are kept apart here.
# Key:
# [1] = target: JAK1 (Homo sapiens (Human), UniProt P23458); assay: Jak Biochemical HTRF Assay (JAK1); conditions: recombinant GST-tagged catalytic domain, [ATP] 31.8 μM, unit not given (compound concentrations tested given in nM)
# Text: Jak Biochemical HTRF Assay Protocol
# Subsequent reagent additions employed an Agilent Bravo.
# [2] = target: JAK2 (Homo sapiens (Human), UniProt O60674); assay: Jak Biochemical HTRF Assay (JAK2)
# [3] = JAK2 IC50, recombinant GST-tagged catalytic domain, [ATP] 8.5 μM, unit not given (compound concentrations tested given in nM)
# [4] = read-out: JAK2 IC50, recombinant GST-tagged catalytic domain, [ATP] 8.5 μM, unit not given (compound concentrations tested given in nM)
# Sequence of JAK2 (O60674 849-1124): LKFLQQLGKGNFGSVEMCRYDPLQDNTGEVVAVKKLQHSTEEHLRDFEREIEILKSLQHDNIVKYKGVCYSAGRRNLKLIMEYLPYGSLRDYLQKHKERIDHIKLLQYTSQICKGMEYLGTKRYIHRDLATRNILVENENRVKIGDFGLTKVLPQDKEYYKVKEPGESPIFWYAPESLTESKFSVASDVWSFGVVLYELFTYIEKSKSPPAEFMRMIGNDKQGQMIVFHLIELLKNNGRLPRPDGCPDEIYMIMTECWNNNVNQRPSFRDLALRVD
# Sequence of JAK1 (P23458 875-1153): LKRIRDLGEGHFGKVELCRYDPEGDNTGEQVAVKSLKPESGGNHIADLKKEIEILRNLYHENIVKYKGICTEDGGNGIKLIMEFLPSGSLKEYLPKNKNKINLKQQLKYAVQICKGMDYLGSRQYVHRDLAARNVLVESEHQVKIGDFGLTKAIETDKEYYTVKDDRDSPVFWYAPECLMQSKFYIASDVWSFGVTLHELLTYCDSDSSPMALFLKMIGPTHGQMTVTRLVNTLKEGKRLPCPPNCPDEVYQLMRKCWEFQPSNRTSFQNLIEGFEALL
SMILES,IC50 [1] [nM],"IC50 [2, 3] [nM]","IC50 [2, 4] [nM]"
"CC1CN(S(=O)(=O)c2ccc(Nc3nn([C@H]4COCC[C@@H]4C#N)c4cc[nH]c(=O)c34)cc2)CCO1 (single isomer, unassigned) [Example 1-75, (3R,4S)-3-{3-[(4-{[(2R or 2S)-2-methylmorpholin-4-yl]sulfonyl}phenyl)amino]-4-oxo-4,5-dihydro-1H-pyrazolo[4,3-c]pyridin-1-yl}tetrahydro-2H-pyran-4-carbonitrile]",0.14,0.54,
"CCNC(c1ccc(Nc2nn([C@H]3COCC[C@@H]3C#N)c3cc[nH]c(=O)c23)cc1)C(F)(F)F (single isomer, unassigned) [Example 1-54, (3R,4S)-3-[3-({4-[(1R or 1S)-1-(ethylamino)-2,2,2-trifluoroethyl]phenyl}amino)-4-oxo-4,5-dihydro-1H-pyrazolo[4,3-c]pyridin-1-yl]tetrahydro-2H-pyran-4-carbonitrile]",0.07,0.14,
"N#C[C@H]1CCOC[C@@H]1n1nc(Nc2ccccc2)c2c(=O)[nH]ccc21 [Example 1-3, (3R,4S)-3-(4-oxo-3-(phenylamino)-4,5-dihydro-1H-pyrazolo[4,3-c]pyridin-1-yl)tetrahydro-2H-pyran-4-carbonitrile]",0.11,,1.39
"C[S+]([O-])c1cc(Nc2nn([C@H]3COCC[C@@H]3C#N)c3cc[nH]c(=O)c23)ccc1F (single isomer, unassigned) [Example 3-2, (3R,4S)-3-(3-((4-fluoro-3-((S or R)-methylsulfinyl)phenyl)amino)-4-oxo-4,5-dihydro-1H-pyrazolo[4,3-c]pyridin-1-yl)tetrahydro-2H-pyran-4-carbonitrile]",0.89,13.7,
"CN1CCN(C(c2ccc(Nc3nn([C@H]4COCC[C@@H]4C#N)c4cc[nH]c(=O)c34)cc2)C(F)(F)F)CC1 (single isomer, unassigned) [Example 1-36, (3R,4S)-3-[4-oxo-3-({4-[(1R or 1S)-2,2,2-trifluoro-1-(4-methylpiperazin-1-yl)ethyl]phenyl}amino)-4,5-dihydro-1H-pyrazolo[4,3-c]pyridin-1-yl]tetrahydro-2H-pyran-4-carbonitrile]",0.24,0.27,
"CN(C)S(=O)(=O)c1ccc(Nc2nn([C@H]3COCC[C@@H]3C#N)c3cc[nH]c(=O)c23)cn1 [Example 1-67, 5-({1-[(3R,4S)-4-cyanotetrahydro-2H-pyran-3-yl]-4-oxo-4,5-dihydro-1H-pyrazolo[4,3-c]pyridin-3-yl}amino)-N,N-dimethylpyridine-2-sulfonamide]",0.7,,1.92
"CN(C)C(c1ccc(Nc2nn([C@H]3COCC[C@@H]3C#N)c3cc[nH]c(=O)c23)cc1)C(F)(F)F (single isomer, unassigned) [Example 1-58, (3R,4S)-3-[3-({4-[(1R or 1S)-1-(dimethylamino)-2,2,2-trifluoroethyl]phenyl}amino)-4-oxo-4,5-dihydro-1H-pyrazolo[4,3-c]pyridin-1-yl]tetrahydro-2H-pyran-4-carbonitrile]",0.07,0.13,
"CC1CCCN1C(c1ccc(Nc2nn([C@H]3COCC[C@@H]3C#N)c3cc[nH]c(=O)c23)cc1)C(F)(F)F (single isomer, unassigned) [Example 1-87, (3R,4S)-3-{4-oxo-3-[(4-{(1S or 1R)-2,2,2-trifluoro-1-[(2R or 2S)-2-methylpyrrolidin-1-yl]ethyl}phenyl)amino]-4,5-dihydro-1H-pyrazolo[4,3-c]pyridin-1-yl}tetrahydro-2H-pyran-4-carbonitrile]",0.15,0.3,
"N#C[C@H]1CCOCC1n1nc(Nc2ccc(C(O)(c3ccccn3)C(F)(F)F)cc2)c2c(=O)[nH]ccc21 (single isomer, unassigned) [Example 1-96, (3R,4S)-3-(4-oxo-3-((4-((S or R)-2,2,2-trifluoro-1-hydroxy-1-(pyridin-2-yl)ethyl)phenyl)amino)-4,5-dihydro-1H-pyrazolo[4,3-c]pyridin-1-yl)tetrahydro-2H-pyran-4-carbonitrile]",0.07,0.15,
"CC(C)(C)NS(=O)(=O)c1ccc(Nc2nn([C@H]3COCC[C@@H]3C#N)c3cc[nH]c(=O)c23)cc1 [Example 1-10, N-(tert-butyl)-4-((1-((3R,4S)-4-cyanotetrahydro-2H-pyran-3-yl)-4-oxo-4,5-dihydro-1H-pyrazolo[4,3-c]pyridin-3-yl)amino)benzenesulfonamide]",0.08,,0.21
"CC(C)NC(C)(C)c1ccc(Nc2nn([C@H]3COCC[C@@H]3C#N)c3cc[nH]c(=O)c23)cc1 [Example 1-61, (3R,4S)-3-{3-[(4-{1-methyl-1-[(1-methylethyl)amino]ethyl}phenyl)amino]-4-oxo-4,5-dihydro-1H-pyrazolo[4,3-c]pyridin-1-yl}tetrahydro-2H-pyran-4-carbonitrile]",0.3,,0.3
"CCN(C(C)(C)C)S(=O)(=O)c1ccc(Nc2nn([C@H]3COCC[C@@H]3C#N)c3cc[nH]c(=O)c23)cc1 [Example 1-79, N-(tert-butyl)-4-((1-((3R,4S)-4-cyanotetrahydro-2H-pyran-3-yl)-4-oxo-4,5-dihydro-1H-pyrazolo[4,3-c]pyridin-3-yl)amino)-N-ethylbenzenesulfonamide]",0.04,,0.08
"CC1CN(S(=O)(=O)c2ccc(Nc3nn([C@H]4COCC[C@@H]4C#N)c4cc[nH]c(=O)c34)cc2)CCO1 (single isomer, unassigned) [Example 1-74, (3R,4S)-3-{3-[(4-{[(2S or 2R)-2-methylmorpholin-4-yl]sulfonyl}phenyl)amino]-4-oxo-4,5-dihydro-1H-pyrazolo[4,3-c]pyridin-1-yl}tetrahydro-2H-pyran-4-carbonitrile]",0.18,0.52,
"COC(C)(c1ccc(Nc2nn([C@H]3COCC[C@@H]3C#N)c3cc[nH]c(=O)c23)cc1)C(F)(F)F (single isomer, unassigned) [Example 1-33, (3R,4S)-3-(4-oxo-3-((4-((S or R)-1,1,1-trifluoro-2-methoxypropan-2-yl)phenyl)amino)-4,5-dihydro-1H-pyrazolo[4,3-c]pyridin-1-yl)tetrahydro-2H-pyran-4-carbonitrile]",0.04,0.09,
"CC1c2cc(Nc3nn([C@H]4COCC[C@@H]4C#N)c4cc[nH]c(=O)c34)ccc2S(=O)(=O)N1C (single isomer, unassigned) [Example 1-34, (3R,4S)-3-(3-(((R or S)-2,3-dimethyl-1,1-dioxido-2,3-dihydrobenzo[d]isothiazol-5-yl)amino)-4-oxo-4,5-dihydro-1H-pyrazolo[4,3-c]pyridin-1-yl)tetrahydro-2H-pyran-4-carbonitrile]",0.03,1.18,
"CN(C(C)(C)C)S(=O)(=O)c1ccc(Nc2nn([C@H]3COCC[C@@H]3C#N)c3cc[nH]c(=O)c23)cc1 [Example 1-12, N-(tert-butyl)-4-((1-((3R,4S)-4-cyanotetrahydro-2H-pyran-3-yl)-4-oxo-4,5-dihydro-1H-pyrazolo[4,3-c]pyridin-3-yl)amino)-N-methylbenzenesulfonamide]",0.1,,0.3
"Cc1ccc(Nc2nn([C@H]3COCC[C@@H]3C#N)c3cc[nH]c(=O)c23)cc1C [Example 1-68, (3R,4S)-3-{3-[(3,4-dimethylphenyl)amino]-4-oxo-4,5-dihydro-1H-pyrazolo[4,3-c]pyridin-1-yl}tetrahydro-2H-pyran-4-carbonitrile]",0.28,,1.83
"CC(C)CNC(c1ccc(Nc2nn([C@H]3COCC[C@@H]3C#N)c3cc[nH]c(=O)c23)cc1)C(F)(F)F (single isomer, unassigned) [Example 1-91, (3R,4S)-3-{4-oxo-3-[(4-{(1R or 1S)-2,2,2-trifluoro-1-[(2-methylpropyl)amino]ethyl}phenyl)amino]-4,5-dihydro-1H-pyrazolo[4,3-c]pyridin-1-yl}tetrahydro-2H-pyran-4-carbonitrile]",0.17,0.21,
"CC(c1ccc(Nc2nn([C@H]3COCC[C@@H]3C#N)c3cc[nH]c(=O)c23)cc1)n1nccn1 (single isomer, unassigned) [Example 1-45, (3R,4S)-3-[4-oxo-3-({4-[(1R or 1S)-1-(2H-1,2,3-triazol-2-yl)ethyl]phenyl}amino)-4,5-dihydro-1H-pyrazolo[4,3-c]pyridin-1-yl]tetrahydro-2H-pyran-4-carbonitrile]",0.14,0.21,
"CN(C)C(c1ccc(Nc2nn([C@H]3COCC[C@@H]3C#N)c3cc[nH]c(=O)c23)cc1)C(F)(F)F (single isomer, unassigned) [Example 1-19, (3R,4S)-3-[3-({4-[(1S or 1R)-1-(dimethylamino)-2,2,2-trifluoroethyl]phenyl}amino)-4-oxo-4,5-dihydro-1H-pyrazolo[4,3-c]pyridin-1-yl]tetrahydro-2H-pyran-4-carbonitrile]",0.05,0.08,
"N#C[C@H]1CCOCC1n1nc(Nc2ccc(C(O)(c3ccccn3)C(F)(F)F)cc2)c2c(=O)[nH]ccc21 (single isomer, unassigned) [Example 1-97, (3R,4S)-3-(4-oxo-3-((4-((S or R)-2,2,2-trifluoro-1-hydroxy-1-(pyridin-2-yl)ethyl)phenyl)amino)-4,5-dihydro-1H-pyrazolo[4,3-c]pyridin-1-yl)tetrahydro-2H-pyran-4-carbonitrile]",0.14,0.18,
"N#C[C@H]1CCOC[C@@H]1n1nc(Nc2ccc(C(N3CCNCC3)C(F)(F)F)cc2)c2c(=O)[nH]ccc21 (single isomer, unassigned) [Example 1-38, (3R,4S)-3-[4-oxo-3-({4-[(1R or 1S)-2,2,2-trifluoro-1-piperazin-1-ylethyl]phenyl}amino)-4,5-dihydro-1H-pyrazolo[4,3-c]pyridin-1-yl]tetrahydro-2H-pyran-4-carbonitrile]",0.09,0.13,
